Reference: patent US11890292B2, “Compositions, methods, systems and/or kits for preventing and/or treating neoplasms” (Research Cancer Institute of America, priority 2017, dated 2024)

Legend:
glioma cells = settings: cited from earlier work
[1] = cited from earlier work
one or more cancers = settings: cyclophosphamide only
Source text: One or more patients are identified who have one or more cancers selected from lung carcinoma, prostate cancer, gliaoblastoma multiform, hormone refractory prostate cancer, solid tumor malignancies such as colon carcinoma, non-small cell lung cancer (NSCLC), anaplastic astrocytoma, bladder carcinoma, sarcoma, ovarian carcinoma, rectal hemangiopericytoma, pancreatic carcinoma, advanced cancer, cancer of large bowel, stomach, pancreas, ovaries, melanoma pancreatic cancer, colon cancer, and bladder cancer.
The one or more patients are administered a formulation comprising cyclophosphamide only. […] On the day of the next administration and prior to the administration, as assessment of the outcome of treatment until that point is conducted and compared to all previous assessments.
Patients are then administered a combination of cyclophosphamide and quercetin and SPB. […] An assessment of the outcome of treatment is periodically made.

Compound | angiogenesis in glioma cells (glioma cells) | water solubility [1] | response of the cancers following the initial response period (one or more cancers)
O=c1c(O)c(-c2ccc(O)c(O)c2)oc2cc(O)cc(O)c12 [Quercetin, quercetin] | suppression of angiogenesis | not water soluble | –
O=P1(N(CCCl)CCCl)NCCCO1 (stereo not drawn) [cyclophosphamide] | – | – | become resistant
